Measured values reported in patent publication US10385031B2, “Substituted piperazines as selective HDAC1,2 inhibitors” (Regenacy Pharmaceuticals, LLC, priority 2016, dated 2019).

Tested on: not listed separately
Experiment: Rat pharmacokinetics, cassette dosing (IV and PO)
Format: in vivo
Conditions: rat, plasma, 5 mg/kg; male SD rats, oral AUC to IV AUC, dose adjusted
Method: Male SD rats were fasted overnight. Compounds of the invention were dissolved in dimethyl acetamide at 10 times the final concentration, then Solutol HS 15 (BASF) was added to a final concentration of 10%. Finally 80% saline was added and vortexed to achieve a clear solution. For the IV dosing three animals were injected via the foot dorsal vein with 1 mg/kg compound. For the PO dosing 5 mg/kg of compound was delivered by oral gavage. Blood was collected via the tail vein into K2EDTA tubes at 5 minutes, 15 minutes, 30 minutes, 1 hour, 2 hours, 4 hours, 8 hours and 24 hours after dosing. The blood was centrifuged at 2000 g for 5 minutes at 4° C. to obtain plasma. The plasma was extracted with acetonitrile and the level of compound was analyzed by LC/MS/MS. The level of compound in plasma was calculated from a standard curve in rat plasma. The IV clearance (L/h/kg) and area under the curve (h*ng/mL) were calculated using WinNonLin software. The dose adjusted area under the curve for the IV and oral dosing were used to calculate the oral bioavailability.
Pharmacokinetic properties were assessed in a rat cassette dosing experiment. The IV clearance (IV Clr.) is in units of L/hr/kg. The oral maximum plasma concentration (PO Cmax) is in units of ng/ml. The oral plasma half-life (PO T½) is in units of hours. The oral area under the curve (PO AUC) is in units of hours*ng/ml. The fraction absorbed by the oral route (F %) is a percentage of the oral area under the curve to the IV area under the curve, dose adjusted.

Row | bioavailability | SMILES
1 | 77% | Nc1ccc(-c2ccco2)cc1NC(=O)c1ccc2nc(N3CCNCC3)ccc2c1 [Compound 003]
2 | 195% | Nc1ccc(-c2ccccc2)cc1NC(=O)c1cc2ccc(N3CCNCC3)cc2cn1 [Compound 022]
3 | 78.6% | CN1CCN(c2ccc(C(=O)Nc3cc(-c4ccncc4)ccc3N)cn2)CC1 [Compound 027]
4 | 9.7% | Nc1ccc(-c2ccncc2)cc1NC(=O)c1cnc(N2CCNCC2)s1 [Compound 032]

Same assay, conditions: rat; male SD rats, IV 1 mg/kg, plasma

Row | IV clearance | SMILES
5 | 3.17 mL/min/kg | Nc1ccc(-c2ccco2)cc1NC(=O)c1ccc2nc(N3CCNCC3)ccc2c1 [Compound 003]
6 | 16.3 mL/min/kg | Nc1ccc(-c2ccccc2)cc1NC(=O)c1cc2ccc(N3CCNCC3)cc2cn1 [Compound 022]
7 | 10.5 mL/min/kg | CN1CCN(c2ccc(C(=O)Nc3cc(-c4ccncc4)ccc3N)cn2)CC1 [Compound 027]
8 | 17.7 mL/min/kg | Nc1ccc(-c2ccncc2)cc1NC(=O)c1cnc(N2CCNCC2)s1 [Compound 032]

Same assay, conditions: rat; male SD rats, PO 5 mg/kg, plasma

Row | AUC | Cmax | SMILES
9 | 19100 ng·h/mL | 1910 ng/mL | Nc1ccc(-c2ccco2)cc1NC(=O)c1ccc2nc(N3CCNCC3)ccc2c1 [Compound 003]
10 | 8180 ng·h/mL | 517 ng/mL | Nc1ccc(-c2ccccc2)cc1NC(=O)c1cc2ccc(N3CCNCC3)cc2cn1 [Compound 022]
11 | 6190 ng·h/mL | 839 ng/mL | CN1CCN(c2ccc(C(=O)Nc3cc(-c4ccncc4)ccc3N)cn2)CC1 [Compound 027]
12 | 456 ng·h/mL | 173 ng/mL | Nc1ccc(-c2ccncc2)cc1NC(=O)c1cnc(N2CCNCC2)s1 [Compound 032]

Same assay, conditions: rat; male SD rats, PO 5 mg/kg, plasma; read-out: PO T½ (converted)

Row | half-life | SMILES
13 | 5 h | Nc1ccc(-c2ccco2)cc1NC(=O)c1ccc2nc(N3CCNCC3)ccc2c1 [Compound 003]
14 | 13.5 h | Nc1ccc(-c2ccccc2)cc1NC(=O)c1cc2ccc(N3CCNCC3)cc2cn1 [Compound 022]
15 | 3 h | CN1CCN(c2ccc(C(=O)Nc3cc(-c4ccncc4)ccc3N)cn2)CC1 [Compound 027]
16 | 4.3 h | Nc1ccc(-c2ccncc2)cc1NC(=O)c1cnc(N2CCNCC2)s1 [Compound 032]

Target: hERG (Homo sapiens (Human), UniProt Q12809)
Sequence (Q12809 whole entry): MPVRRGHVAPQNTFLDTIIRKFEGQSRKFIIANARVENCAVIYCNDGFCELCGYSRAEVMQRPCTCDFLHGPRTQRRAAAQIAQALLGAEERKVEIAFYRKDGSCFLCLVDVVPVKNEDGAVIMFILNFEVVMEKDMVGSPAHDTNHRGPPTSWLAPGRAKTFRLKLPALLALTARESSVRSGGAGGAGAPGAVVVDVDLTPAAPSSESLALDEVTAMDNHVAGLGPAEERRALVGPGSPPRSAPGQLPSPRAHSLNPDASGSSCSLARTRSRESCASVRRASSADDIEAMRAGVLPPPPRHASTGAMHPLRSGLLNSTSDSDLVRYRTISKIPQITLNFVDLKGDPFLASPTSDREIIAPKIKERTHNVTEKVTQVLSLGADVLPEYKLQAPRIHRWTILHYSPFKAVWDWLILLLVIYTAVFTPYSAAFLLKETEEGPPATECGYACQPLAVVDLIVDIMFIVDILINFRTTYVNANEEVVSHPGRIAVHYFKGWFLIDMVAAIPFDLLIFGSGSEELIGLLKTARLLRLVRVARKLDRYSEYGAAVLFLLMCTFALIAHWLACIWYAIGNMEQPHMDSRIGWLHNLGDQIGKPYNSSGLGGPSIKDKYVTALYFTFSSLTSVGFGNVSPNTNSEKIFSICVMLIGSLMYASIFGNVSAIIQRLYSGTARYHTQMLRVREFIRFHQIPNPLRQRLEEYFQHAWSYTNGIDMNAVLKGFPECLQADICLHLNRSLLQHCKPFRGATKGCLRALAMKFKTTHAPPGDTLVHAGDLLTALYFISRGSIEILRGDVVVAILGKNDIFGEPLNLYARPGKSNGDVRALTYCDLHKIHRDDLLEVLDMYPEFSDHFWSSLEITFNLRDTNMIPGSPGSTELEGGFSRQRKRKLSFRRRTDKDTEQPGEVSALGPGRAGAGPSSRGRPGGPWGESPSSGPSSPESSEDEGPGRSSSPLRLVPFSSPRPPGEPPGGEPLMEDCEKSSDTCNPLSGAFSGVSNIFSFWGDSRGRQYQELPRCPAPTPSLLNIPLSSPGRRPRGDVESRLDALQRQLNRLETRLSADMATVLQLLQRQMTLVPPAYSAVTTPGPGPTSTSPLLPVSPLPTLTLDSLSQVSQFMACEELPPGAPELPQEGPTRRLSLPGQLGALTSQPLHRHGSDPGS
Experiment: hERG inhibition, whole-cell patch clamp
Format: cell-based
Conditions: HEK293 cells stably transfected with hERG, 34 °C, tail current
Method: For hERG inhibition assays, the cells used were HEK293 cells stably transfected with hERG (cell line obtained from Cytocentrics Inc. 3463 Magic Drive San Antonio, Tex. 78229). Composition of External Solution: NaCl, 137 mM; KCl, 4 mM; MgCl2, 1.0 mM; CaCl2, 1.8 mM; HEPES 10 mM; Dextrose 11 mM; Adjusted to a pH of 7.4 with NaOH. Composition of Internal Solution: KCl, 130.0 mM; MgCl2, 1.0 mM; HEPES, 5.0 mM; EGTA, 5.0 mM; NaCl 7.0 mM. Adjusted to a pH of 7.2 using KOH. Test Concentrations: 0.1, 1, 10, 100 μM. Vehicle: DMSO. Experiments were performed at 34+/−1° C. Current was recorded using the whole-cell patch clamp technique on the Cytopatch automated platform. hERG current was elicited with the following voltage protocol: hERG current amplitude was measured as the peak current at −50 mV (tail current). […] Each cell served as its own control. Data are presented as the IC50 calculated by non-linear regression analysis.

Row | SMILES | IC50
17 | Nc1ccc(-c2ccco2)cc1NC(=O)c1ccc2nc(N3CCNCC3)ccc2c1 [Compound 003] | 7.6 µM
18 | Nc1ccc(-c2ccccc2)cc1NC(=O)c1cc2ccc(N3CCNCC3)cc2cn1 [Compound 022] | 0.4 µM
19 | CN1CCN(c2ccc(C(=O)Nc3cc(-c4ccncc4)ccc3N)cn2)CC1 [Compound 027] | > 100 µM
20 | CN1CCN(c2ccc(C(=O)Nc3cc(-c4ccncc4)ccc3N)nc2)CC1 [Compound 028] | 38 µM
21 | Cc1nc(N2CCNCC2)sc1C(=O)Nc1cc(-c2cccs2)ccc1N [Compound 031] | 12 µM
22 | Nc1ccc(-c2ccncc2)cc1NC(=O)c1cnc(N2CCNCC2)s1 [Compound 032] | 12 µM

Tested on: CYP1A2, CYP2C9, CYP2C19, CYP3A4, CYP2D6
Experiment: Cyp inhibition in human liver microsomes (all isozymes)
Format: in vitro ADME
Conditions: not given
Method: (§1) For Cyp inhibition, human liver microsomes from BD Gentest were incubated with Compound 028 or Compound 032 (10, 3.33, 1.11, 0.37, 0.12, 0.04, 0.01 μM) and substrate (CYP1A2: Phenacetin at 30 μM; CYP2C9: Diclofenac at 10 μM; CYP2C19: S-Mephenytoin at 35 μM; CYP3A4: Midazolam at 5 μM and Testosterone at 80 μM; CYP2D6: Bufuralol at 10 μM) for the following incubation times: CYP1A2, 2C9, 2D6: 10 minutes, 37° C.; CYP2C19: 45 minutes, 37° C.; CYP3A4: 5 minutes, 37° C. Substrate conversion was measured by liquid chromatography/mass spectrometry/mass spectrometry (LC/MS/MS). Inhibition was calculated by curve fitting in Graph Pad Prism.

Row | IC50 | SMILES
23 | > 10 µM | Nc1ccc(-c2ccco2)cc1NC(=O)c1ccc2nc(N3CCNCC3)ccc2c1 [Compound 003]
24 | > 10 µM | Nc1ccc(-c2ccccc2)cc1NC(=O)c1cc2ccc(N3CCNCC3)cc2cn1 [Compound 022]
25 | > 10 µM | CN1CCN(c2ccc(C(=O)Nc3cc(-c4ccncc4)ccc3N)cn2)CC1 [Compound 027]
26 | > 10 µM | Cc1nc(N2CCNCC2)sc1C(=O)Nc1cc(-c2cccs2)ccc1N [Compound 031]

Target: CYP3A4 (Homo sapiens (Human), UniProt P08684)
Sequence (P08684 whole entry): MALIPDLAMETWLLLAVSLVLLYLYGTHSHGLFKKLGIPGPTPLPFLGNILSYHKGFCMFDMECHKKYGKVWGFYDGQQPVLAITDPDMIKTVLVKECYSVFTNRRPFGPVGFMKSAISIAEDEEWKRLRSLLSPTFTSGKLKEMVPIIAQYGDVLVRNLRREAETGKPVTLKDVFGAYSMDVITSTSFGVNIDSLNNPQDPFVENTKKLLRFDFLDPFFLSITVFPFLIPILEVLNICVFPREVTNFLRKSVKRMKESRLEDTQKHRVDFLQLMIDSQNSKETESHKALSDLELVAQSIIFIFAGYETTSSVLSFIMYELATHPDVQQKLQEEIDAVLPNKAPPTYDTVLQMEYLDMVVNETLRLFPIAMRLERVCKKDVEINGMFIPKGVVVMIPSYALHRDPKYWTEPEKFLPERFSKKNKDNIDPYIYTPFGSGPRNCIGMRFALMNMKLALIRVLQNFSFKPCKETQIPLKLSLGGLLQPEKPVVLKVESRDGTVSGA
Experiment: Cyp inhibition in human liver microsomes (3A4/midazolam)
Format: in vitro ADME
Conditions: not given
Method: as §1, with “CYP2C9:” for “For Cyp inhibition, human liver microsomes from BD Gentest were incubated with Compound 028 or Compound 032 (10, 3.33, 1.11, 0.37, 0.12, 0.04, 0.01 μM) and substrate (CYP1A2: Phenacetin at 30 μM; CYP2C9:”

Row | SMILES | IC50
27 | CN1CCN(c2ccc(C(=O)Nc3cc(-c4ccncc4)ccc3N)nc2)CC1 [Compound 028] | 5.9 µM
28 | Nc1ccc(-c2ccncc2)cc1NC(=O)c1cnc(N2CCNCC2)s1 [Compound 032] | 9.5 µM
